The text below walks through data of patent publication US4205069A, “Dipeptide narcotic antagonists” (American Home Products Corporation, priority 1978, dated 1980).

Test [1] concerns analgesia produced by intraventricular HTyr-D-Ala-Gly-Phe-D-Leu-NH2. In words: Antagonism of enkephalin analog-induced analgesia, tail-flick test. As to conditions: rats, HTyr-D-Ala-Gly-Phe-D-Leu-NH2 1 μg intraventricular. In kind it is in vivo, rat. As for the experimental part: (§1) Duration of analgesia may conveniently be determined by testing for analgesia at regular intervals using a modification of the procedure of D'Amour and Smith, J. Pharmacol., 72, 74 (1941), the tail-flick test. In this test, the existence of analgesia in a rat is determined by measuring the increase in the latency period during which a rat will tolerate a high intensity light beam shining on the tip of its tail.
^a The procedure is the same as in Example 11 except that analgesia
was produced by an intraventricular injection of
HTyr-D-Ala-Gly-Phe-D-Leu-NH2, 1 μg. in 10 μ1. of Ringers
^b The duration score was the same as in Table 1.
A general note: Thermal pain tests record how soon the animal reacts.

Test [2] concerns morphine-induced analgesia. In words: Antagonism of morphine-induced analgesia, tail-flick test. In kind it is in vivo, rat. As to conditions: rats, tail-flick latency >8 sec. As to the method:
as §1
^a All rats were tested at 5minute intervals in the tailflick test
until latencies of 2 to 5 sec. were obtained on three consecutive trials.
All rats then received an injection of morphine sulfate (as indicated in
the table) and were returned to the tailflick test until three consecutiv
trials with no movement of the tail for 8 seconds were obtained. The rats
then received a subcutaneous injection of the test compound, or a control
injection, and were returned to the tailflick test to determine the
^b The duration score is the number of minutes the animal was
completely analgesic (tailflick latency >8 sec.) following injection of […]

The mark [3] stands for this setting: morphine sulfate 2.5 mg/kg subcutaneously, test compound 2.5 mg/kg s.c.
[4] abbreviates: morphine sulfate 2.5 mg/kg subcutaneously, test compound 5 mg/kg s.c.
Setting [5] is: morphine sulfate 5 mg/kg intraperitoneally, test compound 5 mg/kg s.c.

Take `C[C@@H](NC(=O)[C@@H](N)Cc1ccc(O)cc1)C(N)=O` [H-Tyr-D-Ala-NH2]: the “Mean Duration of Analgesia” value is 31.0 min in test [1] (test compound 5 mg/kg s.c.); above 90.00 min in test [2] (morphine sulfate 2.5 mg/kg subcutaneously, test compound 1 mg/kg s.c.); 55.00 min in test [2] (setting [3]); 40.00 min in test [2] (setting [4]); 41.67 min in test [2] (setting [5]).

In the case of `COC(=O)[C@@H](C)NC(=O)[C@@H](N)Cc1ccc(O)cc1` [H-Tyr-D-Ala-O-Me, H-Tyr-D-Ala-OMe], the “Mean Duration of Analgesia” value in test [1] (test compound 1.25 mg/kg s.c.) worked out at 20.0 min; in test [1] (test compound 5 mg/kg s.c.) it was 5.0 min; in test [1] (test compound 10 mg/kg s.c.), 50.0 min; in test [2] (setting [3]), 45.00 min; in test [2] (setting [4]), 61.67 min; in test [2] (morphine sulfate 5 mg/kg intraperitoneally, test compound 2.5 mg/kg s.c.), 37.50 min. Besides, in test [2] (setting [5]), the “Mean Duration of Analgesia” value stood at 27.50 min.
